# Measurements reported in patent US20250089707A1, “ECO-FRIENDLY QUARANTINE COMPOSITION HAVING FUNCTION OF KILLING PHOSPHOLIPID ENVELOPED VIRUS” (priority 2022, published 2025).
# Columns and labels:
# [1] = test system: human epithelial keratinocyte cells (HaCaT); assay: Cytotoxicity, MTT, HaCaT; conditions: 24 hours treatment
# [2] = test system: human monocyte cells (THP-1); assay: Cytotoxicity, MTT, THP-1; conditions: THP-1, 24 hours treatment
# [3] = test system: human bronchial epithelial cells (BEAS-2B); assay: Cytotoxicity, MTT, BEAS-2B; conditions: 24 hours treatment
# [4] = test system: Bacillus subtilis; assay: Antibacterial activity, paper disc method
# [5] = test system: Staphylococcus epidermidis; assay: Antibacterial activity, paper disc method
# [6] = test system: Escherichia coli; assay: Antibacterial activity, paper disc method
# [7] = test system: Staphylococcus aureus; assay: Antibacterial activity, paper disc method
# [8] = test system: Streptococcus mutans; assay: Antibacterial activity, paper disc method
# [9] = test system: Pseudomonas aeruginosa; assay: Antibacterial activity, paper disc method
# [10] = test system: Salmonella typhimurium; assay: Antibacterial activity, paper disc method
smiles,measurement,setting,value
"CCCCCCCCCCCCCCCCCC(=O)[O-].[Na+] [Example P-3, Sodium stearate]",IC50 value (%),[1],0.005292%
same,IC50 value (%),[2],0.4165%
same,IC50 value (%),[3],0.00969%
same,MIC,[4],≥100 μg/50 μl
same,MIC,[5],≥100 μg/50 μl
same,MIC,[6],≥100 μg/50 μl
same,MIC,[7],≥100 μg/50 μl
same,MIC,[8],≥100 μg/50 μl
same,MIC,[9],≥100 μg/50 μl
same,MIC,[10],≥100 μg/50 μl
